Experimental data from ChEMBL document CHEMBL3392978 (Eur J Med Chem, 2015).

Legend:
[1] = target: Vascular endothelial growth factor receptor 2 (Homo sapiens, UniProt P35968); assay: Inhibition of human recombinant VEGFR2 incubated for 1 hr using [gamma-32P]ATP by top count assay
A-375 [2] = assay: Growth inhibition of human A375 cells at 10 uM after 72 hrs by MTT assay; assay type: functional; settings: A-375, 72 h, read-out: GI
[3] = target: Serine/threonine-protein kinase B-raf (Homo sapiens, UniProt P15056); assay: Inhibition of BRAF (unknown origin) incubated for 15 mins by fluorescence based assay
Serine/threonine-protein kinase B-raf, sequence (P15056 whole entry): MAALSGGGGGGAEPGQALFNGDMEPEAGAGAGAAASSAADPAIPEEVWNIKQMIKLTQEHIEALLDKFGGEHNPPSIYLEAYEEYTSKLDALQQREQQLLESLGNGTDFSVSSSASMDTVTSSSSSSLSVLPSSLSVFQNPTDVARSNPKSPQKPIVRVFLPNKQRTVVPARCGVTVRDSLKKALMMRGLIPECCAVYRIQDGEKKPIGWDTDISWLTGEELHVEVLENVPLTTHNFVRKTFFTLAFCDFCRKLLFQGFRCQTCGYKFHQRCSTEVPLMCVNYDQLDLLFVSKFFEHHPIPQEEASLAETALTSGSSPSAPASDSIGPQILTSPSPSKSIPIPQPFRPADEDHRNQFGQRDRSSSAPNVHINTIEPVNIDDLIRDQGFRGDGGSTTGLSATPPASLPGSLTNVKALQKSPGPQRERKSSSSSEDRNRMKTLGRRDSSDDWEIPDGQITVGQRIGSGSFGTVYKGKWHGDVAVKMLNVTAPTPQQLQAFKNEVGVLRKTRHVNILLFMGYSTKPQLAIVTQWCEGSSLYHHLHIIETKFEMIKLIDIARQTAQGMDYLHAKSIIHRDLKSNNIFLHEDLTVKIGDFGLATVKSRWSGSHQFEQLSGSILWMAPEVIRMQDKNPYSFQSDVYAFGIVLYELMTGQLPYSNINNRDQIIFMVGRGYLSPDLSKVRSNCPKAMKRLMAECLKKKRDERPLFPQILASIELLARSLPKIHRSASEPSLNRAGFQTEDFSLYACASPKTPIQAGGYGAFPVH

Mus musculus [4] = assay: Toxicity in human A375 cells xenografted nude Ncr mouse assessed as induction of adverse events at 50 mg/kg, ig dosed once daily for 23 days; assay type: organism-based, A-375; set-up: dose 50 mg/kg, route intragastric; settings: in vivo, po, 552 h
HepG2 [5] = assay: Growth inhibition of human HepG2 cells at 10 uM after 72 hrs by MTT assay; assay type: functional; settings: HepG2, 72 h, read-out: GI
Mus musculus [6] = assay: Toxicity in human A375 cells xenografted nude Ncr mouse assessed as body weight changes at 50 mg/kg, ig dosed once daily for 23 days; assay type: organism-based, A-375; set-up: dose 50 mg/kg, route intragastric; settings: in vivo, po, 552 h
NCI-H522 [7] = assay: Growth inhibition of human NCI-H522 cells at 10 uM after 72 hrs by MTT assay; assay type: functional; settings: NCI-H522, 72 h, read-out: GI
SW480 [8] = assay: Growth inhibition of human SW480 cells at 10 uM after 72 hrs by MTT assay; assay type: functional; settings: SW480, 72 h, read-out: GI
A-375 [9] = assay: Antitumor activity against human A375 cells xenografted in nude Ncr mouse assessed as reduction in tumor growth at 50 mg/kg, ig dosed once daily for 23 days; assay type: functional; settings: A-375, po, 552 h, route intragastric, read-out: TGI
HepG2 [10] = assay: Cytotoxicity against human HepG2 cells assessed as reduction in cell viability after 72 hrs by MTT assay; assay type: functional, cell-based; settings: HepG2, 72 h
MCF7 [11] = assay: Growth inhibition of human MCF7 cells at 10 uM after 72 hrs by MTT assay; assay type: functional; settings: MCF7, 72 h, read-out: GI
MDA-MB-453 [12] = assay: Growth inhibition of human MDA-MB-453 cells at 10 uM after 72 hrs by MTT assay; assay type: functional; settings: MDA-MB-453, 72 h, read-out: GI
A-375 [13] = assay: Cytotoxicity against human A375 cells assessed as reduction in cell viability after 72 hrs by MTT assay; assay type: functional, cell-based; settings: A-375, 72 h
MCF7 [14] = assay: Cytotoxicity against human MCF7 cells assessed as reduction in cell viability after 72 hrs by MTT assay; assay type: functional, cell-based; settings: MCF7, 72 h
MDA-MB-453 [15] = assay: Cytotoxicity against human MDA-MB-453 cells assessed as reduction in cell viability after 72 hrs by MTT assay; assay type: functional, cell-based; settings: MDA-MB-453, 72 h
SW480 [16] = assay: Cytotoxicity against human SW480 cells assessed as reduction in cell viability after 72 hrs by MTT assay; assay type: functional, cell-based; settings: SW480, 72 h
NCI-H522 [17] = assay: Cytotoxicity against human NCI-H522 cells assessed as reduction in cell viability after 72 hrs by MTT assay; assay type: functional, cell-based; settings: NCI-H522, 72 h

Vascular endothelial growth factor receptor 2, sequence (P35968 whole entry): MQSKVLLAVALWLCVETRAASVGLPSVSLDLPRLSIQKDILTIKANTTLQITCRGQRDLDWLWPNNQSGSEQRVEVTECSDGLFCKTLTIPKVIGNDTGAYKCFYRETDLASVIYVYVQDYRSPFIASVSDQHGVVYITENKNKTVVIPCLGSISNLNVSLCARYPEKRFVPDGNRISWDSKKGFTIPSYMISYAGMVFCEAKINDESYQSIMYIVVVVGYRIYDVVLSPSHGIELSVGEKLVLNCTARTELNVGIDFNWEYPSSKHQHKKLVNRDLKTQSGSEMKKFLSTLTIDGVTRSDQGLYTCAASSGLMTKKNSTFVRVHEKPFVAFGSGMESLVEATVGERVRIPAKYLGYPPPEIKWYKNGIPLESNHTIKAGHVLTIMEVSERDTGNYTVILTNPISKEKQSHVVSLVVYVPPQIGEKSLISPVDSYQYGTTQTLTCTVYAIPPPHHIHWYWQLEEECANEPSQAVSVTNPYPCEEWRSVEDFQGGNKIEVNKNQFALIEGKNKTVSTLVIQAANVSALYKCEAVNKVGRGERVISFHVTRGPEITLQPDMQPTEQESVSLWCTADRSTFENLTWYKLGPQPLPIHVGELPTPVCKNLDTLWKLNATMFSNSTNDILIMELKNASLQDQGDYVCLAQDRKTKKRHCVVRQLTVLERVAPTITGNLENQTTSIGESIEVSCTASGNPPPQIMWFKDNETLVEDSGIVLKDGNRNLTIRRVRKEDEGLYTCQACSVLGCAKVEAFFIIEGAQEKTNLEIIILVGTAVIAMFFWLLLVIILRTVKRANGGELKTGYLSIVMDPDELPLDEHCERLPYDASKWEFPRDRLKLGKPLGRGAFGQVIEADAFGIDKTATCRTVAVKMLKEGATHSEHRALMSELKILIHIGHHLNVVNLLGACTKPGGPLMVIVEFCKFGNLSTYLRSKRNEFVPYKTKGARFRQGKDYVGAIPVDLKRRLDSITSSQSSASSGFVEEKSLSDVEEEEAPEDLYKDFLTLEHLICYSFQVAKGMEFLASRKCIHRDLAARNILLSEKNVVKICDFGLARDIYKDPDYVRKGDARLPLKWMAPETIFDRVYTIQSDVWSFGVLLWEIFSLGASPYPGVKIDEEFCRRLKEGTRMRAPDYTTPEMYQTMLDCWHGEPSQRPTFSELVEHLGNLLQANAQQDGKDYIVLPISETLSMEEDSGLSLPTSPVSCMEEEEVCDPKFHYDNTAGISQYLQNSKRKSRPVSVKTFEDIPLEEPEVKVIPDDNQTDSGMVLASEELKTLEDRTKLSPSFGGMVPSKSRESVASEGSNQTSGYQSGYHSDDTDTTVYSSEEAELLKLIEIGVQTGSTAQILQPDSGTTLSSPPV

SMILES | IC50 [1] [µM] | inhibition of growth at 10 µM (A-375 [2]) [%] | IC50 [3] [µM] | Activity (Mus musculus [4]) | inhibition of growth at 10 µM (HepG2 [5]) [%] | Activity (Mus musculus [6]) | inhibition of growth at 10 µM (NCI-H522 [7]) [%] | inhibition of growth at 10 µM (SW480 [8]) [%] | inhibition in vivo at 50 mg/kg (A-375 [9]) [%] | IC50 (HepG2 [10]) [µM] | inhibition of growth at 10 µM (MCF7 [11]) [%] | inhibition of growth at 10 µM (MDA-MB-453 [12]) [%] | IC50 (A-375 [13]) [µM] | IC50 (MCF7 [14]) [µM] | IC50 (MDA-MB-453 [15]) [µM] | IC50 (SW480 [16]) [µM] | IC50 (NCI-H522 [17]) [µM]
O=C(Nc1ccc(Cl)c(C(=O)Nc2ccc(-c3ncc[nH]3)nc2)c1)c1ccc(Cl)c(C(F)(F)F)c1 | 18.6 | 62.6 | 0.65 | Non-toxic | 54.2 | Non-toxic | -3.2 | 38.8 | 35.7 | 13.8 | 41.5 | 49.3 | 4.26 | 15.3 | 8.35 |  | 
O=C(Nc1ccc(Cl)c(C(F)(F)F)c1)c1ccc(Cl)c(C(=O)Nc2ccc(-c3ncc[nH]3)nc2)c1 | 23.4 | 64.4 | 0.531 | Non-toxic | 63.4 | Non-toxic | 0.2 | 33.4 | 42.5 | 3.21 | 31.3 | 52.9 | 2.93 |  | 7.96 |  | 
Cc1cc(C(=O)Nc2ccc(Cl)c(C(=O)Nc3ccc(-c4ncc[nH]4)nc3)c2)ccc1Cl |  | 43.9 |  |  | 52.8 |  | 66.7 | 65.7 |  | 11.5 | 43.7 | 51.1 | 12.6 | 16.3 | 8.76 | 3.57 | 2.09
